# Experimental data reported in US8163771B2, “11 β-HSD1 modulators” (Exelixis, Inc., priority 2008, dated 2012).
# Biological target: T1, recombinant human 11 β-HSD1 (Homo sapiens, UniProt P28845)
# T1 construct: made in house; host or cells: E. coli
# Assay: 11 β-HSD1 SPA Assay (Scintillation Proximity Assay)
# Format: biochemical
# Summary of the method: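 E. coli-expressed human enzyme (30-100 nM) with tritiated cortisone 40 nM and NADPH 1 mM in HEPES buffer pH7.4, 2 hours at room temperature. Stopped with protein A SPA beads carrying anti-cortisol antibody and glycyrrhetinic acid; counted after overnight incubation. IC50 from percent inhibition between no-enzyme and no-compound signals.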
# T1 sequence (P28845 whole entry): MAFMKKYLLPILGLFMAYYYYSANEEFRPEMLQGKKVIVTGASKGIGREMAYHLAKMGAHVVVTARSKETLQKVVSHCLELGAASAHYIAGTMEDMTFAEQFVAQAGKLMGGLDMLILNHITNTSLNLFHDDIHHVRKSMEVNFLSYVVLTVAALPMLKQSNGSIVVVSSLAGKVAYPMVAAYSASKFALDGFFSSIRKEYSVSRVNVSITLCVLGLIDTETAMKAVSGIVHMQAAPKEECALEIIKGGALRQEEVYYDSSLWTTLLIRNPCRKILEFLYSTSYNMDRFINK
row,Compound,IC50
1,"CC(C)(Oc1ccc(F)cc1C(F)(F)F)C(=O)NC1CC2CCC(C1)N2c1ccc(C(=O)NCC(O)C(F)(F)F)cn1 (stereo not drawn) [Example 459, 6-[3-endo-({2-[4-fluoro-2-(trifluoromethyl)phenoxy]-2-methylpropanoyl}amino)-8-azabicyclo[3.2.1]oct-8-yl]-N-(3,3,3-trifluoro-2-hydroxypropyl)pyridine-3-carboxamide]",< 200 nM
2,"CC(C)(Oc1ccc(Cl)cc1Cl)C(=O)N[C@H]1C[C@H]2CC[C@@H](C1)N2c1ccc(-c2nnn[nH]2)cn1 [Example 114, 2-[(2,4-dichlorophenyl)oxy]-2-methyl-N-{8-[5-(1H-tetrazol-5-yl)pyridin-2-yl]-8-azabicyclo[3.2.1]oct-3-endo-yl}propanamide]",< 200 nM
3,"CC(C)(Oc1ccc(Cl)cc1Cl)C(=O)N[C@H]1C[C@H]2CC[C@@H](C1)N2c1ccc(C(=O)NC2CC2)nc1 [Example 163, N-cyclopropyl-5-[3-endo-({2-[(2,4-dichlorophenyl)oxy]-2-methylpropanoyl}amino)-8-azabicyclo[3.2.1]oct-8-yl]pyridine-2-carboxamide]",< 200 nM
4,"CC(C)(Oc1ccc(F)c(Cl)c1Cl)C(=O)N[C@H]1C[C@H]2CC[C@@H](C1)N2c1ccc(C(=O)NCC(F)(F)F)cn1 [Example 100, 6-[3-endo-({2-[(2,3-dichloro-4-fluorophenyl)oxy]-2-methylpropanoyl}amino)-8-azabicyclo[3.2.1]oct-8-yl]-N-(2,2,2-trifluoroethyl)pyridine-3-carboxamide]",< 200 nM
5,"CC(C)(Oc1ccc(Cl)c(F)c1)C(=O)N[C@H]1C[C@H]2CC[C@@H](C1)N2c1ccc(S(N)(=O)=O)cn1 [Example 242, N-{8-[5-(aminosulfonyl)pyridin-2-yl]-8-azabicyclo[3.2.1]oct-3-endo-yl}-2-[(4-chloro-3-fluorophenyl)oxy]-2-methylpropanamide]",< 200 nM
6,"CC(C)NC(=O)c1ccc(N2[C@@H]3CC[C@H]2C[C@@H](NC(=O)C(C)(C)Oc2ccc(Cl)cc2)C3)nc1 [Example 30, 6-[3-endo-({2-[(4-chlorophenyl)oxy]-2-methylpropanoyl}amino)-8-azabicyclo[3.2.1]oct-8-yl]-N-(1-methylethyl)pyridine 3-carboxamide]",< 200 nM
7,"CC(C)(Oc1ccccc1C(F)(F)F)C(=O)N[C@H]1C[C@H]2CC[C@@H](C1)N2c1ccc(S(C)(=O)=O)cn1 [Example 255, 2-methyl-N-{8-[5-(methylsulfonyl)pyridin-2-yl]-8-azabicyclo[3.2.1]oct-3-endo-yl}-2-{[2-(trifluoromethyl)phenyl]oxy}propanamide]",< 200 nM
8,"CC(C)(Oc1c(Cl)cc(F)cc1C(F)(F)F)C(=O)N[C@H]1C[C@H]2CC[C@@H](C1)N2c1ccc(S(C)(=O)=O)cc1 [Example 252, 2-{[2-chloro-4-fluoro-6-(trifiuoromethyl)phenyl]oxy}-2-methyl-N-{8-[4-(methylsulfonyl)phenyl]-8-azabicyclo[3.2.1]oct-3-endo-yl}propanamide]",< 200 nM
9,"CC(C)(Oc1ccc(Cl)cc1Cl)C(=O)N[C@H]1C[C@H]2CC[C@@H](C1)N2c1ccc(NC(=O)C(F)(F)F)cn1 [Example 146, 2-[(2,4-dichlorophenyl)oxy]-2-methyl-N-(8-{5-[(trifluoroacetyl)amino]pyridin-2-yl}-8-azabicyclo[3.2.1]oct-3-endo-yl)propanamide]",< 200 nM
10,"CC(C)(C(=O)N[C@H]1C[C@H]2CC[C@@H](C1)N2c1ccc(C(N)=O)cn1)c1ccc(F)c(F)c1 [Example 165, 6-(3-endo-{[2-(3,4-difluorophenyl)-2-methylpropanoyl]amino}-8-azabicyclo[3.2.1]oct-8-yl)pyridine-3-carboxamide]",< 200 nM
11,"CC(C)(Oc1ccc(Cl)cc1F)C(=O)N[C@H]1C[C@H]2CC[C@@H](C1)N2c1ccc(C(=O)NC2CC2)cn1 [Example 41, 6-[3-endo-({2-[(4-chloro-2-fluorophenyl)oxy]-2-methylpropanoyl}amino)-8-azabicyclo[3.2.1]oct-8-yl]-N-cyclopropylpyridine-3-carboxamide]",< 200 nM
12,"C[C@H](NC(=O)c1ccc(N2C3CCC2CC(NC(=O)C(C)(C)Oc2ccc(F)cc2C(F)(F)F)C3)nc1)C(F)(F)F (stereo partly drawn) [Example 423, 6-[3-endo-({2-[4-fluoro-2-(trifluoromethyl)phenoxy]-2-methylpropanoyl}amino)-8-azabicyclo[3.2.1]oct-8-yl]-N-[(2S)-1,1,1-trifluoropropan-2-yl]pyridine-3-carboxamide]",< 200 nM
13,"C[C@H](NC(=O)c1ccc(N2C3CCC2CC(NC(=O)C(C)(C)Oc2ncc(Cl)cc2F)C3)nc1)C(F)(F)F (stereo partly drawn) [Example 419, 6-[3-endo-({2-[(5-chloro-3-fluoropyridin-2-yl)oxy]-2-methylpropanoyl}amino)-8-azabicyclo[3.2.1]oct-8-yl]-N-[(2S)-1,1,1-trifluoropropan-2-yl]pyridine-3-carboxamide]",< 2000 nM
14,"CC(C)(Oc1ccc(F)cc1F)C(=O)N[C@H]1C[C@H]2CC[C@@H](C1)N2c1ccc(S(C)(=O)=O)cn1 [Example 200, 2-[(2,4-difluorophenyl)oxy]-2-methyl-N-{8-[5-(methylsulfonyl)pyridin-2-yl]-8-azabicyclo[3.2.1]oct-3-endo-yl}propanamide]",< 200 nM
15,"O=C(NCC(F)(F)F)c1ccc(N2[C@@H]3CC[C@H]2C[C@@H](NC(=O)C2(c4ccc(Cl)cc4)CC2)C3)nc1 [Example 22, 6-[3-endo-({[1-(4-chlorophenyl)cyclopropyl]carbonyl}amino)-8-azabicyclo[3.2.1]oct-8-yl]-N-(2,2,2-trifluoroethyl)pyridine-3-carboxamide]",< 200 nM
16,"CCC(Oc1ccc(Cl)cc1)C(=O)N[C@H]1C[C@H]2CC[C@@H](C1)N2c1ccc(C(=O)NCCOC)cn1 (stereo partly drawn) [Example 81, 6-[3-endo-({2-[(4-chlorophenyl)oxy]butanoyl}amino)-8-azabicyclo[3.2.1]oct-8-yl]-N-[2-(methyloxy)ethyl]pyridine-3-carboxamide]",< 2000 nM
17,"CC(C)(Oc1cc(Cl)c(F)cc1Cl)C(=O)N[C@H]1C[C@H]2CC[C@@H](C1)N2c1ncc(C(=O)NCC(F)(F)F)cc1F [Example 162, 6-[3-endo-({2-[(2,5-dichloro-4-fluorophenyl)oxy]-2-methylpropanoyl}amino)-8-azabicyclo[3.2.1]oct-8-yl]-5-fluoro-N-(2,2,2-trifluoroethyl)pyridine-3-carboxamide]",< 200 nM
18,"CCN(CC)CCNC(=O)c1ccc(N2[C@@H]3CC[C@H]2C[C@@H](NC(=O)C(C)(C)Oc2ccc(Cl)cc2Cl)C3)nc1 [Example 377, 6-(3-endo-{[2-(2,4-dichlorophenoxy)-2-methylpropanoyl]amino}-8-azabicyclo[3.2.1]oct-8-yl)-N-[2-(diethylamino)ethyl]pyridine-3-carboxamide]",< 200 nM
19,"CC(C)(Oc1ccc(Cl)cc1Cl)C(=O)N[C@H]1C[C@H]2CC[C@@H](C1)N2c1ccc(S(C)(=O)=O)cc1 [Example 120, 2-[(2,4-dichlorophenyl)oxy]-2-methyl-N-{8-[4-(methylsulfonyl)phenyl]-8-azabicyclo[3.2.1]oct-3-endo-yl}propanamide]",< 200 nM
20,"CC(C)(Oc1ccc(F)c(Cl)c1Cl)C(=O)N[C@H]1C[C@H]2CC[C@@H](C1)N2c1ccc(S(N)(=O)=O)cn1 [Example 215, N-{8-[5-(aminosulfonyl)pyridin-2-yl]-8-azabicyclo[3.2.1]oct-3-endo-yl}-2-[(2,3-dichloro-4-fluorophenyl)oxy]-2-methylpropanamide]",< 200 nM
